Data on seven cell lines can be found in the supplement of paper PMC10307832.

What all share (experiment): relative viability (nuclei count vs DMSO), 5 days (fraction); higher = more cells survive
Compound in one experiment: COc1cc([C@@H]2c3cc4c(cc3[C@@H](O[C@@H]3O[C@@H]5CO[C@@H](C)O[C@H]5[C@H](O)[C@H]3O)[C@H]3COC(=O)[C@H]23)OCO4)cc(OC)c1O [Etoposide]
The method, boiled down:
(§1)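 In 1536-well plates, lung cancer cell lines rested overnight at 37 °C before five library-drug doses (not always all listed), √10 apart, were pinned onto vehicle-anchored plates. Nuclei were counted with MetaXpress from 4× Hoechst images taken after 5 days without medium change. Viability compares treated-well with vehicle-well nuclei as a median over plates, and plates needed control CV below 25% plus at least one doubling to pass.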

Compound in a further experiment: CC1=C(N=C(N=C1N)[C@H](CC(=O)N)NC[C@@H](C(=O)N)N)C(=O)N[C@@H]([C@H](C2=CN=CN2)OC3C(C(C(C(O3)CO)O)O)OC4C(C(C(C(O4)CO)O)OC(=O)N)O)C(=O)N[C@H](C)[C@H]([C@H](C)C(=O)N[C@@H]([C@@H](C)O)C(=O)NCCC5=NC(=CS5)C6=NC(=CS6)C(=O)NCCC[S+](C)C)O [Bleomycin]
To be noted: main component drawn. The method, boiled down: as §1

Compound in the experiment “Etoposide + Pemetrexed”: COc1cc([C@@H]2c3cc4c(cc3[C@@H](O[C@@H]3O[C@@H]5CO[C@@H](C)O[C@H]5[C@H](O)[C@H]3O)[C@H]3COC(=O)[C@H]23)OCO4)cc(OC)c1O [Etoposide] + Nc1nc2[nH]cc(CCc3ccc(C(=O)N[C@@H](CCC(=O)O)C(=O)O)cc3)c2c(=O)[nH]1 [Pemetrexed] (partner 0.2 µM)
The method, boiled down:
(§2)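 Each reported value is a median over duplicate plates. It expresses relative viability: treated-well nuclei count divided by vehicle-well nuclei count. Lung cancer cell lines in 1536-well plates were dosed by pin tool a day after seeding, alone with one drug or with a fixed anchor-drug dose plus five library-drug doses (not always all listed) in √10 steps, and nuclei were counted after 5 days.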

Compound in the experiment “Bleomycin + Alpelisib”: CC1=C(N=C(N=C1N)[C@H](CC(=O)N)NC[C@@H](C(=O)N)N)C(=O)N[C@@H]([C@H](C2=CN=CN2)OC3C(C(C(C(O3)CO)O)O)OC4C(C(C(C(O4)CO)O)OC(=O)N)O)C(=O)N[C@H](C)[C@H]([C@H](C)C(=O)N[C@@H]([C@@H](C)O)C(=O)NCCC5=NC(=CS5)C6=NC(=CS6)C(=O)NCCC[S+](C)C)O [Bleomycin] + Cc1nc(NC(=O)N2CCC[C@H]2C(N)=O)sc1-c1ccnc(C(C)(C)C(F)(F)F)c1 [Alpelisib] (partner 2 µM)
Particulars: main component drawn. The method, boiled down:
as §2

As for SW 1573, the relative viability with Etoposide (0.01 µM) was found to be 0.968; with Etoposide (0.03162 µM), 0.986; with Etoposide (0.1 µM) it was 0.635; in the experiment with Etoposide (0.3162 µM) it was 0.309; with Etoposide (1 µM), 0.167; with Bleomycin (0.01 µM), 0.743. In addition, the relative viability in the experiment with Bleomycin (0.03162 µM) came to 0.705; in the experiment with Bleomycin (0.1 µM), 0.677; with Bleomycin (0.3162 µM), 0.396; with Bleomycin (1 µM), 0.286; with Etoposide + Pemetrexed (first compound 0.01 µM), 0.877; in the experiment with Etoposide + Pemetrexed (first compound 0.03162 µM), 0.785. Further, the relative viability came out at 0.397 with Etoposide + Pemetrexed (first compound 0.1 µM); 0.259 in the experiment with Etoposide + Pemetrexed (first compound 0.3162 µM); 0.148 with Etoposide + Pemetrexed (first compound 1 µM); 0.643 with Bleomycin + Alpelisib (first compound 0.01 µM); 0.64 in the experiment with Bleomycin + Alpelisib (first compound 0.03162 µM); 0.596 with Bleomycin + Alpelisib (first compound 0.1 µM). Further, the relative viability is 0.302 in the experiment with Bleomycin + Alpelisib (first compound 0.3162 µM) and 0.342 with Bleomycin + Alpelisib (first compound 1 µM).
H3255: the relative viability turned out to be 0.962 in the experiment with Etoposide (0.01 µM); 1.09 with Etoposide (0.03162 µM); 0.73 in the experiment with Etoposide (0.1 µM); 0.725 in the experiment with Etoposide (0.3162 µM); 0.433 with Etoposide (1 µM); 0.837 in the experiment with Bleomycin (0.01 µM). Further, the relative viability with Bleomycin (0.03162 µM) worked out at 1.02; with Bleomycin (0.1 µM), 0.821; in the experiment with Bleomycin (0.3162 µM) it was 0.61; with Bleomycin (1 µM), 0.502; in the experiment with Etoposide + Pemetrexed (first compound 0.01 µM), 0.541; in the experiment with Etoposide + Pemetrexed (first compound 0.03162 µM), 0.619. Also, the relative viability in the experiment with Etoposide + Pemetrexed (first compound 0.1 µM) was determined as 0.564; with Etoposide + Pemetrexed (first compound 0.3162 µM), 0.536; in the experiment with Etoposide + Pemetrexed (first compound 1 µM), 0.404; with Bleomycin + Alpelisib (first compound 0.01 µM), 0.532; in the experiment with Bleomycin + Alpelisib (first compound 0.03162 µM), 0.69; with Bleomycin + Alpelisib (first compound 0.1 µM) it was 0.508. Further, the relative viability was 0.335 with Bleomycin + Alpelisib (first compound 0.3162 µM) and 0.305 in the experiment with Bleomycin + Alpelisib (first compound 1 µM).
With NCI-H1792, the relative viability in the experiment with Etoposide (0.01 µM) stood at 1.01; with Etoposide (0.03162 µM), 1.22; in the experiment with Etoposide (0.1 µM), 0.522; with Etoposide (0.3162 µM), 0.816; with Etoposide (1 µM), 0.416; with Bleomycin (0.01 µM) it was 0.755. Further, the relative viability with Bleomycin (0.03162 µM) is 1.03; in the experiment with Bleomycin (0.1 µM) it was 0.733; with Bleomycin (0.3162 µM), 0.387; with Bleomycin (1 µM), 0.421; in the experiment with Etoposide + Pemetrexed (first compound 0.01 µM), 0.743; in the experiment with Etoposide + Pemetrexed (first compound 0.03162 µM), 0.768. The relative viability with Etoposide + Pemetrexed (first compound 0.3162 µM) was found to be 0.616; with Etoposide + Pemetrexed (first compound 1 µM), 0.229; in the experiment with Bleomycin + Alpelisib (first compound 0.01 µM) it was 0.631; with Bleomycin + Alpelisib (first compound 0.03162 µM) it was 0.61; with Bleomycin + Alpelisib (first compound 0.1 µM), 0.623; with Bleomycin + Alpelisib (first compound 0.3162 µM), 0.228. Moreover, the relative viability in the experiment with Bleomycin + Alpelisib (first compound 1 µM) came out at 0.221.
SK-MES-1: the relative viability is 0.978 with Etoposide (0.01 µM); 1.06 with Etoposide (0.03162 µM); 0.9 in the experiment with Etoposide (0.1 µM); 0.587 with Etoposide (0.3162 µM); 0.258 with Etoposide (1 µM); 0.861 with Bleomycin (0.01 µM). Further, the relative viability with Bleomycin (0.03162 µM) came to 0.885; with Bleomycin (0.1 µM) it was 0.77; with Bleomycin (0.3162 µM) it was 0.371; with Bleomycin (1 µM), 0.262; in the experiment with Etoposide + Pemetrexed (first compound 0.01 µM), 0.912; with Etoposide + Pemetrexed (first compound 0.03162 µM), 1.02. Further, the relative viability was 0.844 with Etoposide + Pemetrexed (first compound 0.1 µM); 0.708 with Etoposide + Pemetrexed (first compound 0.3162 µM); 0.256 in the experiment with Etoposide + Pemetrexed (first compound 1 µM); 0.731 in the experiment with Bleomycin + Alpelisib (first compound 0.01 µM); 0.531 with Bleomycin + Alpelisib (first compound 0.03162 µM); 0.59 with Bleomycin + Alpelisib (first compound 0.1 µM). The relative viability was 0.315 with Bleomycin + Alpelisib (first compound 0.3162 µM) and 0.185 with Bleomycin + Alpelisib (first compound 1 µM).
On to NCI-H2126, for which the relative viability in the experiment with Etoposide (0.01 µM) is 0.977; with Etoposide (0.03162 µM), 1.05; with Etoposide (0.1 µM), 0.63; with Etoposide (0.3162 µM) it was 0.859; in the experiment with Etoposide (1 µM) it was 0.441; in the experiment with Bleomycin (0.01 µM), 0.961. In addition, the relative viability in the experiment with Bleomycin (0.03162 µM) is 1; in the experiment with Bleomycin (0.1 µM), 1.03; with Bleomycin (0.3162 µM), 0.758; with Bleomycin (1 µM), 0.714; with Etoposide + Pemetrexed (first compound 0.01 µM), 0.633; in the experiment with Etoposide + Pemetrexed (first compound 0.03162 µM), 0.878. Further, the relative viability with Etoposide + Pemetrexed (first compound 0.1 µM) is 0.591; in the experiment with Etoposide + Pemetrexed (first compound 0.3162 µM), 0.677; in the experiment with Etoposide + Pemetrexed (first compound 1 µM) it was 0.461; with Bleomycin + Alpelisib (first compound 0.01 µM) it was 0.758; with Bleomycin + Alpelisib (first compound 0.03162 µM), 0.789; with Bleomycin + Alpelisib (first compound 0.1 µM), 0.808. Besides, the relative viability was 0.6 in the experiment with Bleomycin + Alpelisib (first compound 0.3162 µM) and 0.552 with Bleomycin + Alpelisib (first compound 1 µM).
As to HCC-366, the relative viability is 0.992 with Etoposide (0.01 µM); 1.07 with Etoposide (0.03162 µM); 0.769 with Etoposide (0.1 µM); 0.377 with Etoposide (0.3162 µM); 0.0702 with Etoposide (1 µM); 0.923 with Bleomycin (0.01 µM). The relative viability with Bleomycin (0.03162 µM) was 0.722; with Bleomycin (0.1 µM), 0.591; in the experiment with Bleomycin (0.3162 µM) it was 0.182; with Bleomycin (1 µM) it was 0.0724; with Etoposide + Pemetrexed (first compound 0.01 µM), 0.174; with Etoposide + Pemetrexed (first compound 0.03162 µM), 0.182. For the same cell line, the relative viability with Etoposide + Pemetrexed (first compound 0.1 µM) was determined as 0.272; with Etoposide + Pemetrexed (first compound 0.3162 µM), 0.157; with Etoposide + Pemetrexed (first compound 1 µM), 0.0669; in the experiment with Bleomycin + Alpelisib (first compound 0.01 µM), 0.345; with Bleomycin + Alpelisib (first compound 0.03162 µM), 0.253; in the experiment with Bleomycin + Alpelisib (first compound 0.1 µM) it was 0.212. Also, the relative viability was 0.042 with Bleomycin + Alpelisib (first compound 0.3162 µM) and 0.035 in the experiment with Bleomycin + Alpelisib (first compound 1 µM).
In the case of NCI-H838, the relative viability was determined as 0.963 in the experiment with Etoposide (0.01 µM); 1.03 with Etoposide (0.03162 µM); 0.719 with Etoposide (0.1 µM); 0.773 in the experiment with Etoposide (0.3162 µM); 0.351 with Etoposide (1 µM); 0.692 with Bleomycin (0.01 µM). In addition, the relative viability stood at 0.436 with Bleomycin (0.03162 µM); 0.301 in the experiment with Bleomycin (0.1 µM); 0.229 in the experiment with Bleomycin (0.3162 µM); 0.213 in the experiment with Bleomycin (1 µM); 0.277 in the experiment with Etoposide + Pemetrexed (first compound 0.01 µM); 0.259 with Etoposide + Pemetrexed (first compound 0.03162 µM). In addition, the relative viability was found to be 0.274 with Etoposide + Pemetrexed (first compound 0.1 µM); 0.251 in the experiment with Etoposide + Pemetrexed (first compound 0.3162 µM); 0.239 with Etoposide + Pemetrexed (first compound 1 µM); 0.674 with Bleomycin + Alpelisib (first compound 0.01 µM); 0.29 with Bleomycin + Alpelisib (first compound 0.03162 µM); 0.238 with Bleomycin + Alpelisib (first compound 0.1 µM). Besides, the relative viability with Bleomycin + Alpelisib (first compound 0.3162 µM) is 0.161; in the experiment with Bleomycin + Alpelisib (first compound 1 µM), 0.212.
